Results reported in patent US9545413B2, “Methods of forming ciclopirox or derivatives thereof in a subject by administration of prodrug” (The University of Kansas, priority 2010, dated 2017).
Several values for one entry are separate records, joined by “and”; a condition that tells them apart may be missing. Equal entries are not always repeated. Marks after values point to notes of the source that are not given here.

How the values were obtained:
[1] = Mouse plasma ciclopirox pharmacokinetics after 10 mg/kg IV bolus; assay type: in vivo; settings: for Plasma Ciclopirox Concentrations: individual animals A-F, phosphate disodium salt, 10 mg/kg
Protocol: The plasma ciclopirox concentrations in (ng/mL) were determined following bolus administration of ciclopirox-POM prodrug at a 10 mg/kg IV bolus in a mouse model. Time points where data collected are shown in Table 1 to be at 5, 15, 30, 60, 90, 120, 180, and 240 minutes along with the data. […] The IV bolus formulation for prodrug was in 25 mM phosphate buffer.
(§1) Time points where data collected are shown in Table 1 to be at 5, 15, 30, 60, 90, 120, 180, and 240 minutes along with the data.
Additionally, mouse intravenous dose pharmacokinetics were determined.
(§2) The IV bolus and oral administrations are described above.

[2] = Mouse plasma ciclopirox pharmacokinetics after 30 mg/kg oral dose; assay type: in vivo; settings: for Plasma Ciclopirox Concentrations / Plasma Ciclopirox Concentrations, Mean: 30 mg/kg oral dose; for Plasma Ciclopirox Concentrations: individual animals A-F
Protocol: The plasma ciclopirox (i.e., CPX) concentrations in (ng/mL) were determined following bolus administration of ciclopirox-POM prodrug at a 30 mg/kg orally in a mouse model. Time points where data collected are shown in Table 3 to be at 5, 15, 30, 60, 90, 120, 180, and 240 minutes along with the data. […] The oral formulation is a composition having Orasweet SF along with the […].
as §1
Additionally, mouse oral dose pharmacokinetics were determined.
as §2

[3] = Detection of prodrug in plasma and urine after administration; assay type: in vivo
From the text: Accordingly, ciclopirox is readily bioavailable when given IV as the prodrug. […] Based on the data, it is reasonable to believe that the ciclopirox-POM prodrug is rapidly converted to ciclopirox.
Accordingly, ciclopirox is readily bioavailable when given IV as the prodrug. […] Based on the data, it is reasonable to believe that the ciclopirox-POM prodrug is rapidly converted back to ciclopirox.

[4] = tested on: NMIBC and MIBC cell lines; test: Anticancer activity in bladder cancer cell lines; assay type: cell-based
From the text: (§3) Bladder cancer presents as two diseases, NMIBC and muscle invasive bladder cancer (MIBC). Approximately three-fourths of newly diagnosed bladder cancer patients present with NMIBC. NMIBC, as it invades into bladder muscle, becomes MIBC. MIBC often metastasizes, requiring systemically administered chemotherapy agents. […] The ciclopirox from ciclopirox-POM prodrug delivery inhibits cell proliferation, colony formation, and spheroid formation in well characterized NMIBC and MIBC cell lines. Although that ciclopirox's fungicidal activity is mediated through its ability to chelate iron, and interrupt iron-dependent intracellular processes, ciclopirox in vitro anti-cancer activity in independent of commercially available iron chelators. […] Accordingly, ciclopirox-POM prodrug can be used in treatment of all forms of bladder cancer, and in cancer stem cells of many different cancers where the Notch signaling pathway is active.

[5] = tested on: Notch-1 signaling pathway; test: Inhibition of Notch-1 signaling; assay type: cell-based; settings: bladder cancer
From the text: The prodrug converts to the active ciclopirox compound that effectively suppresses stem cells in bladder cancer and specifically targets the Notch-1 signaling pathway. […] Suppressing Notch is a significant activity for the compound to inhibit bladder and other cancers where Notch signaling is active (e.g. colon cancer, osteosarcoma).
as §3

[6] = ciclopirox, mouse, 30 mg/kg oral

## Cc1cc(C2CCCCC2)n(OCOP(=O)([O-])[O-])c(=O)c1.[Na+].[Na+] [Ciclopirox-POM]
[1]; 10 mg/kg IV bolus, 5 min
  Plasma Ciclopirox Concentrations: 7280 ng/mL and 7320 ng/mL and 6370 ng/mL and 9700 ng/mL and 8500 ng/mL and 8860 ng/mL
  Plasma Ciclopirox Concentrations, Mean: 8005 ng/mL
[1]; 10 mg/kg IV bolus, 15 min
  Plasma Ciclopirox Concentrations: 3310 ng/mL and 3180 ng/mL and 1520 ng/mL and 1370 ng/mL and 4010 ng/mL and 3190 ng/mL
  Plasma Ciclopirox Concentrations, Mean: 2763.3 ng/mL
[1]; 10 mg/kg IV bolus, 30 min
  Plasma Ciclopirox Concentrations: 994 ng/mL and 1200 ng/mL and 986 ng/mL and 1030 ng/mL and 1080 ng/mL and 452 ng/mL
  Plasma Ciclopirox Concentrations, Mean: 957 ng/mL
[1]; 10 mg/kg IV bolus, 60 min
  Plasma Ciclopirox Concentrations: 410 ng/mL and 259 ng/mL (2×) and 284 ng/mL and 409 ng/mL and 436 ng/mL
  Plasma Ciclopirox Concentrations, Mean: 342.8 ng/mL
[1]; 10 mg/kg IV bolus, 90 min
  Plasma Ciclopirox Concentrations: 97.6 ng/mL and 157 ng/mL and 74.2 ng/mL and 79.1 ng/mL and 162 ng/mL and 168 ng/mL
  Plasma Ciclopirox Concentrations, Mean: 123 ng/mL
[1]; 10 mg/kg IV bolus, 120 min
  Plasma Ciclopirox Concentrations: 58 ng/mL and 73.7 ng/mL and 57.9 ng/mL and 19.3 ng/mL and 71.7 ng/mL and 84.8 ng/mL
  Plasma Ciclopirox Concentrations, Mean: 60.9 ng/mL
[1]; 10 mg/kg IV bolus, 180 min
  Plasma Ciclopirox Concentrations: 18.1 ng/mL and 23 ng/mL and 19.5 ng/mL and 34.8 ng/mL and 19.7 ng/mL and 37.7 ng/mL
  Plasma Ciclopirox Concentrations, Mean: 25.5 ng/mL
[1]; 10 mg/kg IV bolus, 240 min
  Plasma Ciclopirox Concentrations: 13 ng/mL and 10 ng/mL (2×) and 15 ng/mL and 12 ng/mL and 8 ng/mL
  Plasma Ciclopirox Concentrations, Mean: 11.1 ng/mL
[1]; IV administration, prodrug compared to olamine salt
  CPX Bioavailability Following Prodrug Administration: 1.143
[1]; ciclopirox, 10 mg/kg IV bolus
  Alpha Half-life: 9.84 min
  Alpha rate constant: 0.07043 min⁻¹
  Beta Half-life: 35.92 min
  Beta rate constant: 0.01929 min⁻¹
  CL: 48.275* mL/min/kg
  Vdbeta: 2.502 L/kg
[2]; [6]
  Beta Half-life: 52.76 min
  Beta rate constant: 0.01316 min⁻¹
  CL/F: 722.06 mL/min/kg
  Cmax: 520.3 ng/mL
  Tmax: 15 min
[2]; mice, oral administration
  Bioavailability following oral administration: 12%
[2]; mouse, 0 min
  Plasma Ciclopirox Concentrations: 0 ng/mL
  Plasma Ciclopirox Concentrations, Mean: 0 ng/mL
[2]; mouse, 15 min, phosphate disodium salt, 30 mg/kg
  Plasma Ciclopirox Concentrations: 388 ng/mL and 646 ng/mL and 857 ng/mL and 245 ng/mL and 479 ng/mL and 507 ng/mL
[2]; mouse, 15 min
  Plasma Ciclopirox Concentrations, Mean: 520.3 ng/mL
[2]; mouse, 30 min, phosphate disodium salt, 30 mg/kg
  Plasma Ciclopirox Concentrations: 302 ng/mL and 252 ng/mL and 264 ng/mL and 317 ng/mL and 207 ng/mL and 342 ng/mL
[2]; mouse, 30 min
  Plasma Ciclopirox Concentrations, Mean: 280.7 ng/mL
[2]; mouse, 60 min, phosphate disodium salt, 30 mg/kg
  Plasma Ciclopirox Concentrations: 129 ng/mL and 404 ng/mL and 154 ng/mL and 229 ng/mL and 171 ng/mL and 207 ng/mL
[2]; mouse, 60 min
  Plasma Ciclopirox Concentrations, Mean: 215.7 ng/mL
[2]; mouse, 90 min, phosphate disodium salt, 30 mg/kg
  Plasma Ciclopirox Concentrations: 91 ng/mL and 66.8 ng/mL and 146 ng/mL and 137 ng/mL and 120 ng/mL and 80.3 ng/mL
[2]; mouse, 90 min
  Plasma Ciclopirox Concentrations, Mean: 106.9 ng/mL
[2]; mouse, 120 min, phosphate disodium salt, 30 mg/kg
  Plasma Ciclopirox Concentrations: 72.5 ng/mL and 60.6 ng/mL and 64.6 ng/mL and 81.4 ng/mL and 83.6 ng/mL
[2]; mouse, 120 min
  Plasma Ciclopirox Concentrations, Mean: 72.5 ng/mL
[2]; mouse, 180 min, phosphate disodium salt, 30 mg/kg
  Plasma Ciclopirox Concentrations: 36.8 ng/mL and 45.1 ng/mL and 59.1 ng/mL and 66.4 ng/mL and 44.9 ng/mL and 44 ng/mL
[2]; mouse, 180 min
  Plasma Ciclopirox Concentrations, Mean: 49.4 ng/mL
[2]; mouse, 240 min, phosphate disodium salt, 30 mg/kg
  Plasma Ciclopirox Concentrations: 9.51 ng/mL and 19 ng/mL (2×) and 14.7 ng/mL and 38.1 ng/mL
[2]; mouse, 240 min
  Plasma Ciclopirox Concentrations, Mean: 20.1 ng/mL
[2]; mouse, oral 30 mg/kg v. IV bolus 10 mg/kg of the same substance
  Foral: 0.06686
[2]; mouse, oral administration, prodrug compared to olamine salt
  CPX Bioavailability Following Prodrug Administration: 0.5603
[3]; following IV and oral administration
  Detection of the prodrug in plasma: inability to detect
[3]; following IV, oral, subcutaneous and intraperitoneal administration
  Detection of the prodrug in plasma and urine: inability to detect

## Cc1cc(C2CCCCC2)n(O)c(=O)c1 [ciclopirox, 6-cyclohexyl-1-hydroxy-4-methylpyridin-2(1H)-one]
[4]
  Cell proliferation: inhibits
  Colony formation: inhibits
  Spheroid formation: inhibits
[5]
  Notch-1 signaling pathway: inhibits
